Series [1] is described as follows: Susceptibility to hydrolysis in buffer, LC/MS. As to conditions: 37 °C; for Stability to hydrolysis at pH 1: buffer pH 1, 24 h. The series is classed as physicochemical. The procedure:
Next, we investigated the persistence of CDK6 degradation after single drug exposure. […] The differences were even more pronounced when conducting a drug washout-step, showing that while BSJ-03-123 kept CDK6 protein below 50% for a maximum of 6 h, CDK6 degradation mediated by PROTACs 27 and 34 was more persistent and stable for up to 72 h (Fig. 4E and S10, ESI ^†). […] Since these degraders mainly differ in the ligase-binding part, we hypothesized that the deviations in the long-term experiments (Fig. 5A) are due to chemical inactivation of the CRBN ligand. We then tested compounds 27, 34 (VHL-based) and BSJ-03-123 (8, CRBN-based) for susceptibility to hydrolysis. These PROTACs were incubated in two different buffers for 24 h at 37 °C and aliquots were analysed by LC/MS.
Fig. 5 (A) Quantification of long-term treatment experiments (see Fig. S9, ESI ^†) and (B) drug stability data at pH 1 and pH 7.4. Acetonitrile solutions of the PROTACs were mixed with two different buffers and incubated for 24 hours at 37 °C. Subsequently, aliquots were analysed by LC/MS and normalized to acetonitrile solutions.

Series [2] has as its target T1, CDK6 (Mus musculus, UniProt Q64261).
T1 construct: western blotting experiments with the murine myeloid 32D cell line and the murine pro-B-cell line Ba/F3; endogenous in cells; host or cells: 32D (murine myeloid) and Ba/F3 (murine pro-B)
Kind of series: CDK6 degradation in murine cell lines 32D and Ba/F3, western blot. The series is classed as cell-based. The settings on record: 32D and Ba/F3 cells, 0.1 μM, 16 h. The text has this: When bound to IMiDs, human CRBN induces the recruitment of the neosubstrates IKZF1 and IKZF3 via a Val-388 interaction,[53],[55] leading to their subsequent proteasomal degradation. […] The previously reported BRD4 degrader dBET1 was capable of binding to murine CRBN and performed as an active PROTAC in murine cells.[57],[58] To test whether our CRBN-based degrader 11 maintains CDK6 degradation across different species, we performed western blotting experiments with the murine myeloid 32D cell line and the murine pro-B-cell line Ba/F3 (Fig. 2A). […] While the activity of BSJ-03-123 (8) was attenuated at this concentration, 11 mediated on-target effects at concentrations as low as 10 nM (Fig. 2B).
Fig. 2 CDK6 degradation by CRBN-based degrader 11 is conserved in murine cell lines. (A) Human cell lines MM.1S and murine cell lines 32D and Ba/F3 were treated with vehicle, pomalidomide (POM), CDK6-selective degrader BSJ-03-123 (8), negative control 21, or PROTAC 11 at 0.1 μM for 16 h; (B) CDK6-degradation is induced in a dose-dependent manner in murine cells. Murine cell lines 32D and Ba/F3 were treated with PROTAC 11 at indicated concentrations for 16 h.
(§1) Multiple myeloma, leukaemia, and murine cell lines:
(§2) After respective designated treatments, cells were washed with 1× PBS and lysed in IP lysis buffer (Pierce) containing HALT protease and phosphatase inhibitor cocktail (Thermo Scientific). Sodium dodecyl sulfate-polyacrylamide gel electrophoresis (SDS-PAGE) was performed with 5–20 µg of protein loaded per sample. Gel electrophoresis was carried out at a constant voltage. Proteins were transferred onto Immobilon-P transfer membranes (Millipore). Membranes were blocked with 5% milk in Tris Buffered Saline with 0.05% Tween 20 (TBS-T) followed by overnight incubation at 4 °C with shaking in primary antibodies diluted in 5% BSA in TBS-T. After incubation with respective secondary HRP-conjugated antibodies diluted in 5% milk in TBST, detection of proteins was performed using either WesternBright ECL HRP substrate or WesternBright Sirius HRP substrate (Advansta). Chemiluminescence was detected with ChemiDoc™ XRS+ System (Bio-Rad). For further detection of other proteins on the same membrane, membranes were subjected to incubation in Restore Western Blot Stripping Buffer, followed by re-blocking, and further probing of proteins was carried out. Quantification was performed using ImageJ (National Institutes of Health). […]

Series [3] concerns the target T2, CDK6 (Homo sapiens, UniProt Q00534).
T2 construct: Percentage values are normalized to DMSO-treated MM.1S cells and the respective loading controls; endogenous in cells; host or cells: MM.1S (human multiple myeloma)
Kind of series: CDK6 degradation, western blot of MM.1S cells. The series is classed as cell-based. As to conditions: for Selectivity ratio D CDK4/D CDK6 for the degradation of CDK6 over CDK4 / remaining activity at 0.1 µM / remaining activity at 1 µM: 16 h; for remaining activity at 0.1 µM / remaining activity at 1 µM: MM1.S, read-out: D CDK6: remaining CDK6 levels; for Time CDK6 degradation persists (CDK6 protein below 50%) after drug washout: 0.1 μM for 16 h, then washout with PBS; for Persistence of CDK6 degradation after single drug exposure (long-term treatment): no washout.
From the text: (§3) We determined the concentration of both kinases and CRBN, the latter in order to control the expression of the corresponding ligase. Since IMiDs, such as pomalidomide, cause the degradation of the lymphoid transcription factors Ikaros (IKZF1) and Aiolos (IKZF3) through the involvement of CRBN,[53],[54] this undesired effect was inspected. […] As further characteristics of CDK4/6d, the desired selectivity of CDK6 over CDK4 degradation and the unwanted influence on the IKZF1 concentration were determined. […] Next, we determined the concentration- and time-dependent activity of 11 (Fig. S2, ESI ^†).
as §1
as §2, with “was” for “was carried out. Quantification was performed using ImageJ (National Institutes of Health).”

A short description of series [4]: elog D7.4 by chromatographic (HPLC) method. The series is classed as physicochemical. As to conditions: Polaris C18-A column, pH 7.4, read-out: elog D7.4 (experimental distribution coefficient at pH 7.4). As for the experimental part: Supplementary Information: Physical Chemistry
N. Molecular Descriptor Calculation […]
O. Physicochemical Measurements
The determination of the elog D7.4 values was performed by a chromatographic method according to […]
The column was a Polaris C18-A column (2 mm I.D., 50 mm length, 3 μm particle size) from Agilent Technologies. A linear mobile phase gradient was applied with […] TRIS buffer adjusted to pH 7.4 and MeCN. Therefore, the gradient was run from 5% […]
between the runs with a constant flow-rate of 0.8 ml/min and a temperature of 25 °C. The output wavelength of the detector was set to 269.5 nm. In order to calibrate the log D7.4 to the retention time, 6 different drugs with known log D7.4 were dissolved in DMSO and 10 µl were injected […]
Approximately 1 mg of the samples was dissolved in DMSO and 5 µl were injected. Analyses were conducted in duplicates. Subsequently, the mean retention times of the analytes were taken to calculate their log D7.4 values with aid of the calibration line.

Another series concerns the target T3, CDK4 (Homo sapiens, UniProt P11802).
T3 construct: Percentage values are normalized to DMSO-treated MM.1S cells and the respective loading controls; endogenous in cells; host or cells: MM.1S (human multiple myeloma)
Kind of series: CDK4 degradation, western blot of MM.1S cells. The series is classed as cell-based. The settings on record: MM1.S, 16 h, read-out: D CDK4: remaining CDK4 levels.
From the text: as §3, §1
as §2, with “was” for “was carried out. Quantification was performed using ImageJ (National Institutes of Health).”

The target of the next series is T4, IKZF1 (Homo sapiens, UniProt Q13422+Q96SW2).
T4 construct: endogenous in cells; host or cells: MM.1S (human multiple myeloma)
T4 sequence (Q13422 whole entry): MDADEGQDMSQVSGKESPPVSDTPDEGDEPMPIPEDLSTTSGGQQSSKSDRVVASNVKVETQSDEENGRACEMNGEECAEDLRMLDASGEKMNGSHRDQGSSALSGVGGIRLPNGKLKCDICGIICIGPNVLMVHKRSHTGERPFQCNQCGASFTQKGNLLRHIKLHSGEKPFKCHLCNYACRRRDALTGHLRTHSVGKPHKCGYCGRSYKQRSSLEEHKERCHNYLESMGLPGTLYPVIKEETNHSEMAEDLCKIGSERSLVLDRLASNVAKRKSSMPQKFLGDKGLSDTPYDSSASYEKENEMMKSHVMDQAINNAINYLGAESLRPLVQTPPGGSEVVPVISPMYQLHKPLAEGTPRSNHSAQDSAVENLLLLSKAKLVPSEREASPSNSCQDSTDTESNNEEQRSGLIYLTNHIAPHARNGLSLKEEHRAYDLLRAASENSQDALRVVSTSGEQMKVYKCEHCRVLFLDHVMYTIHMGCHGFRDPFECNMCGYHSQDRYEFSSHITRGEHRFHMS
T4 sequence (Q96SW2 whole entry): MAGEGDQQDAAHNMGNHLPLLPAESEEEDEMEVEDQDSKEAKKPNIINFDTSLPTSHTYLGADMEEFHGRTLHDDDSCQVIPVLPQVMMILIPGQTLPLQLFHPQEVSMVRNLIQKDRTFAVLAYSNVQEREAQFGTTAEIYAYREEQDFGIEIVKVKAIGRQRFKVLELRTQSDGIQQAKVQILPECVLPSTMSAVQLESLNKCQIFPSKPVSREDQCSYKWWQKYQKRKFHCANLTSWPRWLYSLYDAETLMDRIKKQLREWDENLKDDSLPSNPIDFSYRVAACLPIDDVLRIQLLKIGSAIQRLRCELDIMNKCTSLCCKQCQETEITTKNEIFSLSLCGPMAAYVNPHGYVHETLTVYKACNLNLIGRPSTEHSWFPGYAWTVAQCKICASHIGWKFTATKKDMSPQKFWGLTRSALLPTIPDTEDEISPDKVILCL
T4 sequence (Q16531 whole entry partner): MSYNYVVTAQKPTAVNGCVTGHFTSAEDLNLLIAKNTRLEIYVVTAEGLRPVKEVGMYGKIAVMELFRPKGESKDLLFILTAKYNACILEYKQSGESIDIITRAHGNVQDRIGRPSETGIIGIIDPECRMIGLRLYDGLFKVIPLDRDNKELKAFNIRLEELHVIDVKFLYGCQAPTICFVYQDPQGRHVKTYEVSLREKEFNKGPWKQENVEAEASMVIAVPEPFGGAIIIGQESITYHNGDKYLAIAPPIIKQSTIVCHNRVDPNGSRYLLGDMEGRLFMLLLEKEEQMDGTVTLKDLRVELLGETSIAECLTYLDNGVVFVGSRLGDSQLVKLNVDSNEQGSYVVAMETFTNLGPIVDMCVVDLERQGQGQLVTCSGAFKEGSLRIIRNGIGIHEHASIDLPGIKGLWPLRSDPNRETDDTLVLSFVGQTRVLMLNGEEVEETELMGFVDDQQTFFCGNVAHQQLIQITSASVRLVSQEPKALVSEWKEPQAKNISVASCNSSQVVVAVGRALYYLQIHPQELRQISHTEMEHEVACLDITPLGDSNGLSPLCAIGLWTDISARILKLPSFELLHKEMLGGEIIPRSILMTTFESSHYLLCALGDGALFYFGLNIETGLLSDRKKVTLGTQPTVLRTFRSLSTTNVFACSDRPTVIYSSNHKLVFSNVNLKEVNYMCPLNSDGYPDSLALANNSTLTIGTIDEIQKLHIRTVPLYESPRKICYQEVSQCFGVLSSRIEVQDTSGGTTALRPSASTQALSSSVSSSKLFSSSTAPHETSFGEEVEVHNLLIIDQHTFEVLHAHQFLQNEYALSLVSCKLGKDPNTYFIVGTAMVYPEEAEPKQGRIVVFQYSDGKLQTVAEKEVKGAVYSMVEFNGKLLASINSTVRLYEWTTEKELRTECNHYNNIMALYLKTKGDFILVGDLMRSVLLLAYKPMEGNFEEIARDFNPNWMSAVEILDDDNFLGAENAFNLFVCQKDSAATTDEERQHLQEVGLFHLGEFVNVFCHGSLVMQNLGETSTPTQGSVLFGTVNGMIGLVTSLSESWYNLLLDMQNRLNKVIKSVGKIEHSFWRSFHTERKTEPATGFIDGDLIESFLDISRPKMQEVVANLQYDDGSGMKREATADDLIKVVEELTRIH
Description: Neosubstrate IKZF1 degradation, western blot of MM.1S cells.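 Further: test concentration 0.1 µM.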 The series is classed as cell-based. As to conditions: MM1.S, 16 h, normalized to DMSO (100%), read-out: D IKZF1: remaining IKZF1 levels.
From the text: as §3, §1
as §2, with “was” for “was carried out. Quantification was performed using ImageJ (National Institutes of Health).”

Series [5] has as its system MM.1S, LP-1, AMO-1, MOLM-13, HEL, KG-1, K562, Nalm-6. Description: Cell viability assay (CellTiter-Glo), multiple myeloma and leukemia cell lines. The series is classed as cell-based, human. The settings on record: 96 h, 0.1 or 1 μM. The procedure: as §1
(§4) Cells were seeded in 96-well plates with media containing indicated concentrations of respective compounds and plates were incubated at 37 °C for 96 hours. Readout was performed with CellTiter-Glo® Luminescent Cell Viability Assay (Promega) according to the manufacturer’s protocol and luminescence was measured with POLARStar Omega plate reader (BMG LabTech). All results were normalized to non-treated conditions and data represent mean ±SD of biological triplicates. […]
(§5) Dose response curves were modeled and plotted by using GraphPad Prism software (GraphPad Software). Statistical analysis was performed using GraphPad Prism software (GraphPad Software).
(§6) Variance of biological replicates is represented as the standard error of the mean (SEM) or as the […]

For a further series, the system named is HEL cells. Kind of series: Cell viability assay (CellTiter-Glo), HEL cells. As to conditions: Homo sapiens, 96 h. The series is classed as cell-based. The procedure: as §1, §4, §5, §6
For another series, the system named is MDA-MB-231 cells. Description: Cell viability assay (CellTiter-Glo), MDA-MB-231 breast cancer cells. The settings on record: 96 h. The series is classed as cell-based, human. The procedure: Breast cancer cell lines:
To access the compound effect on cell viability, cells were plated in 384-well tissue culture-treated plates (Greiner Bio One). Twenty-four hours later, tested compounds were added into culture to the desired concentrations. Cell viability was measured by using CellTiter-Glo® Luminescent Cell Viability Assay (Promega) at day 4 or day 7 post-treatment and normalized by non-treated controls. […]
as §5, §6

On the set-up of series [6]: method as in earlier work. The settings on record: calibration compounds; cited from earlier work.
The mark [7] stands for this setting: 0.1 μM, MM.1S cells, normalized to DMSO (100%).
The mark [8] stands for this setting: 1 μM, MM.1S cells, normalized to DMSO (100%).

The structures appear in SMILES notation. Read-outs that look alike come from different tables or passages of the source.

T3 sequence (P11802 whole entry): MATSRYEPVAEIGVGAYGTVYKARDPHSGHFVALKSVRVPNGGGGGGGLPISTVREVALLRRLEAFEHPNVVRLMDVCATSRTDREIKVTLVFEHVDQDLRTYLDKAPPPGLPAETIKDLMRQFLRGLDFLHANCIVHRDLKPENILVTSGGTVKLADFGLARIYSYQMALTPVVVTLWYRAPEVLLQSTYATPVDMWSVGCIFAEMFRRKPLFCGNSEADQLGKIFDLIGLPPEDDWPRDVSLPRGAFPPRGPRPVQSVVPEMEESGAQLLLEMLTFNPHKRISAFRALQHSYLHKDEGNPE
T2 sequence (Q00534 whole entry): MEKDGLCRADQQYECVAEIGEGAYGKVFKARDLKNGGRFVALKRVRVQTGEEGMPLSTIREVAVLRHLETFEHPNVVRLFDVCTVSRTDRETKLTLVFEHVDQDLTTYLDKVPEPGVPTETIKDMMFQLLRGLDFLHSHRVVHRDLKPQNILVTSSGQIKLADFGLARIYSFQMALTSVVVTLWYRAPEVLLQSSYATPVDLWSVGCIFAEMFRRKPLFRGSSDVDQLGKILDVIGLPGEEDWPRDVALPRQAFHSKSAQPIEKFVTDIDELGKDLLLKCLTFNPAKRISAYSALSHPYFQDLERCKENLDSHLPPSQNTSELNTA
T1 sequence (Q64261 whole entry): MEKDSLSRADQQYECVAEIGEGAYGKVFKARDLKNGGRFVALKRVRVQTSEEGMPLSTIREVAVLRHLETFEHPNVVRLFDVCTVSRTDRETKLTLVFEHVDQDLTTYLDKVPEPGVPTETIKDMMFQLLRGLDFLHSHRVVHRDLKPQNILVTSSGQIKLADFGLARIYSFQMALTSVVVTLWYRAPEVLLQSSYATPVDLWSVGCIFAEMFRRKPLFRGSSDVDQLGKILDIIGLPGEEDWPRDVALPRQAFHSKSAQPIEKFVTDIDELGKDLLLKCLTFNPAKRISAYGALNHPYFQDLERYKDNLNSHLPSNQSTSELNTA

Consider `CC(=O)c1c(C)c2cnc(Nc3ccc(N4CCN(CCOCCOCCOCCNC(=O)COc5cccc6c5C(=O)N(C5CCC(=O)NC5=O)C6=O)CC4)cn3)nc2n(C2CCCC2)c1=O` (stereo not drawn) [8 (BSJ-03-123), BSJ-03-123, reference compound], for which the “Stability to hydrolysis at pH 1” value in series [1] is recorded as “stable”. Moreover, the “Stability to hydrolysis at pH 7.4” value in [1] (buffer pH 7.4, 24 h) was “pronounced decomposition”. Moreover, the “CDK6 degradation in murine cells” value on CDK6 [2] is given as “attenuated”. Further, the “Selectivity ratio D CDK4/D CDK6 for the degradation of CDK6 over CDK4” value on CDK6 [3] (0.1 μM, MM.1S cells) is on record as 4.9. Moreover, the remaining activity at 0.1 µM was 5.5% at CDK6 [3] (setting [7]), 27% at CDK4 (setting [7]) and 82% on IKZF1. In addition, on CDK6 [3] (setting [8]), the remaining activity at 1 µM was found to be 2.1%. The “Time CDK6 degradation persists (CDK6 protein below 50%) after drug washout” value at CDK6 [3] (MM.1S cells) is at most 6 h. Moreover, the “Persistence of CDK6 degradation after single drug exposure (long-term treatment)” value on CDK6 [3] (MM.1S cells) is “began to recover after 24 h”. Further, the chromatographic logD in [4] was 2.5.

Consider `CC(=O)c1c(C)c2cnc(Nc3ccc(N4CCN(CCOCCOCCOCC(=O)N[C@H](C(=O)N5C[C@H](O)C[C@H]5C(=O)N[C@@H](C)c5ccc(-c6scnc6C)cc5)C(C)(C)C)CC4)cn3)nc2n(C2CCCC2)c1=O` [27 (CST620)], for which the “Stability to hydrolysis at pH 1” value in [1] is “stable”. Moreover, in series [5] (MM.1S, LP-1, AMO-1, MOLM-13, HEL, KG-1, K562, Nalm-6), the “Effect on cell proliferation” value is given as “inhibited cell proliferation”. Also, the “Selectivity ratio D CDK4/D CDK6 for the degradation of CDK6 over CDK4” value at CDK6 [3] (0.1 μM, MM.1S cells) was 19. Besides, at CDK6 [3] (setting [7]), the remaining activity at 0.1 µM came out at 1.7%. Further, the remaining activity at 1 µM on CDK6 [3] (setting [8]) amounted to 15%. Also, on CDK6 [3] (MM.1S cells), the “Time CDK6 degradation persists (CDK6 protein below 50%) after drug washout” value is reported as “up to 72 h” and the “Persistence of CDK6 degradation after single drug exposure (long-term treatment)” value is “satisfactory CDK6 level suppression even after 96 h”. Moreover, in series [4], the chromatographic logD was found to be 2.9. Inhibition in the series with HEL cells was half-maximal at 1.54 µM (IC50). Besides, the remaining activity at 0.1 µM on CDK4 (setting [7]) stood at 33%. In addition, in the series with MDA-MB-231 cells, the “Inhibitory activity on cell viability relative to palbociclib” value is recorded as “inhibitory activity comparable to palbociclib”.

On to `COc1ccc([C@@H]2Sc3ccccc3N(CCN(C)C)C(=O)[C@@H]2OC(C)=O)cc1` [Diltiazem], for which, in series [6], the “Lit. log D7.4” value was 2.70.

As for `COCCc1ccc(OCC(O)CNC(C)C)cc1` (stereo not drawn) [Metoprolol], the “Lit. log D7.4” value in [6] is “–0.06”.

Take `CC1(C)C(C=C(Cl)Cl)C1C(=O)OCc1cccc(Oc2ccccc2)c1` (stereo not drawn) [Permethrin]: the “Lit. log D7.4” value in [6] is 6.50.

In the case of `CN[C@@H](C)C(=O)N[C@H](C(=O)N1C[C@@H](Oc2cccc(OCCOCCOCCOCCN3CCN(c4ccc(Nc5ncc6c(C)c(C(C)=O)c(=O)n(C7CCCC7)c6n5)nc4)CC3)c2)C[C@H]1C(=O)N[C@@H]1CCCc2ccccc21)C1CCCCC1` [compound 35], in series [5] (MM.1S and Nalm-6 cells), the “Cell viability compared with palbociclib, VHL-series PROTACs and IAP ligand 5” value is recorded as “more strongly impaired”. At CDK6 [3], the remaining activity at 0.1 µM was determined as 75% and the remaining activity at 1 µM was 18%. For the same molecule, in [4], the chromatographic logD was determined as 4.3. Further, the remaining activity at 0.1 µM on CDK4 was 77%.

(Values after publication PMC7552917, “Systematic exploration of different E3 ubiquitin ligases: an approach towards potent and selective CDK6 degraders” (Chemical Science, 2020).)
